Here are results for 22 compounds from publication PMC6556873, “Rapid Covalent-Probe Discovery by Electrophile-Fragment Screening” (Journal of the American Chemical Society, 2019).

Like-named read-outs stand apart in the source and are kept apart here.

Data set [1] has as its target T1, BSA (Bos taurus, UniProt P02769).
T1 construct: gene ALB
Details: Intact protein LC/MS covalent labelling, fragments in pools of five, 200 uM each, 4 °C. Conditions: 24 h, 4 °C, pool of five; 200 µM; covalent. As to the method: (§1) Incubations were performed at 200 μM for each compound and 2 μM of protein (10 μM for BSA) for 24 h at 4 °C with moderate shaking. Incubation buffers varied among proteins (PBS pH 7.4 for QSOX1 and BSA; 10 mM HEPES pH 7.5, 0.3 M NaCl, 0.5 mM TCEP for PCAF, UPS8, and NUDT7; […]; 10 mM Na2HPO4 pH 7.5 100 mM NaCl 5 mM β-mercaptoethanol for NV3CP; 20 mM Na phosphate pH 7.5 for NNMT; […]. The reaction was stopped by quenching with formic acid, 0.4% final concentration. Each protein was incubated with the electrophilic library in pools of five compounds per well. The pool’s composition maximized the difference in mass between fragments in the same well. Incubations were performed with each fragment at 200 μM, for 24 h at 4 °C, to allow the screening of proteins that are not stable for long time periods at higher temperatures. Following incubation, we used intact protein [compound left out] chromatography/mass spectrometry (LC/MS) to identify the fragments and quantify their labeling (Figure 3A). […] There was good agreement between the percent of labeling of NUDT7 by 100 random individual compounds and that obtained in pools of five (R^2=0.78; Figure S6 and Data set 2 in the Supporting Information).

For data set [2], the target named is T2, NUDT7 (Homo sapiens, UniProt P0C024).
T2 construct: residues 14-235, E. coli, pNIC28-Bsa4, N-terminal His6 tag removed by TEV, construct 26672 Da
Details: Intact protein LC/MS covalent labelling, fragments in pools of five, 200 uM each, 4 °C. The following applies: 24 h, 4 °C, pool of five; 200 µM; covalent. As to the method: as §1

For data set [3], the target named is T3, OTUB2 (OTUB2A) (Homo sapiens, UniProt Q96DC9).
T3 construct: full length residues 1-234, E. coli BL21(DE3)-R3, His tag removed by TEV, construct 27312 Da
T3 sequence (Q96DC9 1-234): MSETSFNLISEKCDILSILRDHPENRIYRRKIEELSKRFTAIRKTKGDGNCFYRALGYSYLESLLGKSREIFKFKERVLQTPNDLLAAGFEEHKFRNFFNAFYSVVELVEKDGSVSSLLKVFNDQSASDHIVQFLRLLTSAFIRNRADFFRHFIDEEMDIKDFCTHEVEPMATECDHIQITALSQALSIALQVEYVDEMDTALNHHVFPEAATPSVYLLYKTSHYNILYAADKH
On the set-up: Intact protein LC/MS covalent labelling, fragments in pools of five, 200 uM each, 4 °C. Conditions: 24 h, 4 °C, pool of five; 200 µM; covalent. As to the method: as §1

In data set [4] the target is T4, PCAF (Homo sapiens, UniProt Q92831).
T4 construct: gene KAT2B
On the set-up: Intact protein LC/MS covalent labelling, fragments in pools of five, 200 uM each, 4 °C. The following applies: 24 h, 4 °C, pool of five; 200 µM; covalent. On the procedure: as §1

Data set [5] is described as follows: in vitro. The following applies: human, hb2 cells, read-out: HB-2 Cells Viability (%). Details: species or system CCD841, HEK293.
The nature of data set [6]: in vitro. Details: species or system HB2, HEK293. Conditions: human, ccd841 cells.
A short description of data set [7]: in vitro. On the set-up: species or system HB2, CCD841. Conditions: human, hek293 cells.

T1 sequence (P02769 whole entry): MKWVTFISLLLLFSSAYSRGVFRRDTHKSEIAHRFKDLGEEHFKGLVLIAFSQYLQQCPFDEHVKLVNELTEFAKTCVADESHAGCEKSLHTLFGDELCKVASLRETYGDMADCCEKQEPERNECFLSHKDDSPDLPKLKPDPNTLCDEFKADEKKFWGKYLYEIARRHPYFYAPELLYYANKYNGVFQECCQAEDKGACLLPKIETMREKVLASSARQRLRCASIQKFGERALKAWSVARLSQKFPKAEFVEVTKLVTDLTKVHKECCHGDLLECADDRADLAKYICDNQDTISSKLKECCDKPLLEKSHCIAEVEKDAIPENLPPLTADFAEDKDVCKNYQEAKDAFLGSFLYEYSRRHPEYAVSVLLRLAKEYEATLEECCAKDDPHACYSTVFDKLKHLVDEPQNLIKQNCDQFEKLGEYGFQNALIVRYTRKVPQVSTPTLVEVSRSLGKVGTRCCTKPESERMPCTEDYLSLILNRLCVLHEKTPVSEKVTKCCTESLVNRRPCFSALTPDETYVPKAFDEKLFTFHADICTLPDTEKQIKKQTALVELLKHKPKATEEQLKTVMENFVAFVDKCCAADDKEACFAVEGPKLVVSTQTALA
T2 sequence (P0C024 14-235): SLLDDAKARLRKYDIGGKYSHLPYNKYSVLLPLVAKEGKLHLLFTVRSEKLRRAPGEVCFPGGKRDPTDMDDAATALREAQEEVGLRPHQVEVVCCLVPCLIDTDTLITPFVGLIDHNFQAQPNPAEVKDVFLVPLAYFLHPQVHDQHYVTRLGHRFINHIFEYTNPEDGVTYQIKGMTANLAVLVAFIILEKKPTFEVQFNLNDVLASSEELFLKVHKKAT
T4 sequence (Q92831 whole entry): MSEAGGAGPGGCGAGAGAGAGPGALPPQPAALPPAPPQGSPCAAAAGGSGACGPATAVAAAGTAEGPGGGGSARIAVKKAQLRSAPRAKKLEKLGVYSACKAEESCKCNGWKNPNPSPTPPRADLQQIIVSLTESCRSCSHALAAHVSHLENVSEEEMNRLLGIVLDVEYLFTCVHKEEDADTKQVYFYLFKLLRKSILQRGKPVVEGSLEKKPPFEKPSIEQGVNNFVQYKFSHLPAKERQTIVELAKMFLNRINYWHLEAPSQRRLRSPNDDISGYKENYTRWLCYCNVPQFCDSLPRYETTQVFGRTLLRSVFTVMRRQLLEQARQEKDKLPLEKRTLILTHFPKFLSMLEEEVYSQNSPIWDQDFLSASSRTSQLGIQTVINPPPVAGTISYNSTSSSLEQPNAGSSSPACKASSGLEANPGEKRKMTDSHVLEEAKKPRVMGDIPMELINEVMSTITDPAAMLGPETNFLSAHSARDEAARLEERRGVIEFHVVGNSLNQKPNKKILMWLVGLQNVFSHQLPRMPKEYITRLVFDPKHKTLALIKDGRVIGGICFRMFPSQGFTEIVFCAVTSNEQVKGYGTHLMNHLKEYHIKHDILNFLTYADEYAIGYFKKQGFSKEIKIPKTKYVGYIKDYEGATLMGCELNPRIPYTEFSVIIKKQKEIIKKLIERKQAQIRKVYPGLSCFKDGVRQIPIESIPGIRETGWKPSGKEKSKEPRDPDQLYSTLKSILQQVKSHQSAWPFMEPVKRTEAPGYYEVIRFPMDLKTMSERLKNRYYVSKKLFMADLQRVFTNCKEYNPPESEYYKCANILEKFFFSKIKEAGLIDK

In data set [1], `Cc1ccc(CN(C)C(=O)CCl)c(C)c1` [PCM-0102552] returned a BSA of 0. The NUDT7 in data set [2] was determined as 0.19. In data set [3], this compound displayed an OTUB2 of 0. In addition, the PCAF in data set [4] was 0. For the same compound, the viability – broadly, a read-out of living cells in per cent, often relative to untreated cells – at 48 h, 10 µM in data set [5] is 54.5%; in data set [6], 69.9%; in data set [7], 62.6%.
With `Cc1n[nH]c(=O)c2c(NC(=O)CCl)oc(C)c12` [PCM-0102226], the BSA in data set [1] stood at 0. In data set [2], this compound gave an NUDT7 of 0. In data set [3], the OTUB2 amounted to 0. This compound displayed a PCAF in data set [4] of 0. Also, the values for the viability at 48 h, 10 µM in data set [5], in data set [6] and in data set [7] were 108%, 112% and 104%, respectively.
With `C=CC(=O)Nc1ccnn1-c1ccccc1C` [PCM-0102643], in data set [1], the BSA was 0. This compound registered an NUDT7 in data set [2] of 0.12. Besides, in data set [3], the OTUB2 amounted to 0. In addition, the PCAF in data set [4] is 0. Also, the viability at 48 h, 10 µM amounted to 87.4% in data set [5], 88.7% in data set [6] and 64.4% in data set [7].
Compound `N#CC1(N2CCN(C(=O)CCl)CC2)CCCCC1` [PCM-0102303] gave a BSA in data set [1] of 0. Also, the NUDT7 in data set [2] was 0. For the same compound, the OTUB2 in data set [3] is given as 0.07. The compound further yielded a PCAF in data set [4] of 0. Moreover, the results for the viability at 48 h, 10 µM in data set [5], in data set [6] and in data set [7] were 103%, 107% and 91.6%, respectively.
`Cc1ccc(Cl)cc1NC(=O)CCl` [PCM-0102354]: the BSA in data set [1] was 0. The NUDT7 in data set [2] is 0. Besides, the OTUB2 in data set [3] worked out at 0. For the same compound, the PCAF in data set [4] is recorded as 0. In addition, the viability at 48 h, 10 µM in data set [5] was found to be 16.3%; in data set [6] it was 44.6%; in data set [7] it was 9.3%.
The compound `CNC(=O)CNC(=O)CCl` [PCM-0102279] yielded a BSA in data set [1] of 0.09. In addition, the NUDT7 in data set [2] is given as 0. Further, the OTUB2 in data set [3] turned out to be 0.1. Also, the PCAF in data set [4] was determined as 0. The viability at 48 h, 10 µM in data set [5] worked out at 108%; in data set [6], 97.3%; in data set [7], 112%.
Turning to `CC1CCN(C(=O)CCl)C2CCCCC12` (stereo not shown) [PCM-0102831], the BSA in data set [1] is reported as 0. Further, the NUDT7 in data set [2] is on record as 0.37. For the same compound, the OTUB2 in data set [3] was 0. The compound further showed a PCAF in data set [4] of 0. Besides, the viability at 48 h, 10 µM in data set [5] came out at 14.7%; in data set [6], 6.8%; in data set [7], 5.6%.
In data set [1], `CCC1(C)NC(=O)N(NC(=O)CCl)C1=O` (stereo not shown) [PCM-0102205] gave a BSA of 0. Also, the NUDT7 in data set [2] came out at 0. The compound further had an OTUB2 in data set [3] of 0. The PCAF in data set [4] worked out at 0. Moreover, the viability at 48 h, 10 µM in data set [5] worked out at 96.9%; in data set [6], 85.3%; in data set [7], 88%.
The compound `Cc1csc(N(C(=O)CCl)c2ccccc2)n1` [PCM-0102265] registered a BSA in data set [1] of 0. Further, in data set [2], the NUDT7 is listed as 0.19. Moreover, the OTUB2 in data set [3] was 0.06. The compound also yielded a PCAF in data set [4] of 0. Further, the viability at 48 h, 10 µM is 12.6% in data set [5], 36.8% in data set [6] and 48.6% in data set [7].
In data set [1], `CC(C)N(C(=O)CCl)C1CCCC1` [PCM-0102948] came in with a BSA of 0. Besides, the NUDT7 in data set [2] was determined as 0.13. In data set [3], this compound displayed an OTUB2 of 0. In addition, the PCAF in data set [4] stood at 0. The viability at 48 h, 10 µM was 88.4% in data set [5], 102% in data set [6] and 84.3% in data set [7].
On to `COc1ccc(NC(=O)CCl)cn1` [PCM-0102140], for which the BSA in data set [1] is listed as 0. The compound further gave an NUDT7 in data set [2] of 0. The compound also yielded an OTUB2 in data set [3] of 0. The compound also had a PCAF in data set [4] of 0. In addition, the viability at 48 h, 10 µM in data set [5] was 62%; in data set [6], 63.7%; in data set [7] it was 44.3%.
As to `CC1CC(=O)Nc2ccccc2N1C(=O)CCl` (stereo not shown) [PCM-0102697], the BSA in data set [1] came out at 0. This compound yielded an NUDT7 in data set [2] of 0.22. In data set [3], the OTUB2 amounted to 0. The compound further gave a PCAF in data set [4] of 0. Also, the results for the viability at 48 h, 10 µM in data set [5], in data set [6] and in data set [7] were 83.7%, 62.6% and 52.8%, respectively.
In data set [1], `CS(=O)(=O)N1CCN(C(=O)CCl)CC1` [PCM-0102417] had a BSA of 0. For the same compound, the NUDT7 in data set [2] stood at 0. This compound also displayed an OTUB2 in data set [3] of 0. This compound also showed a PCAF in data set [4] of 0. In addition, the viability at 48 h, 10 µM in data set [5] is 89.4%; in data set [6], 78.8%; in data set [7] it was 70.1%.
In turn, `Cc1cccc(C(C)C)c1NC(=O)CCl` [PCM-0102358] displayed a BSA in data set [1] of 0. For the same compound, the NUDT7 in data set [2] is 0. The compound also displayed an OTUB2 in data set [3] of 0. In data set [4], this compound registered a PCAF of 0. Further, the viability at 48 h, 10 µM amounted to 102% in data set [5], 89.3% in data set [6] and 76.5% in data set [7].
For `CC1CN(C(=O)CCl)CCO1` (stereo not shown) [PCM-0102830], in data set [1], the BSA was found to be 0. Besides, the NUDT7 in data set [2] is listed as 0. Besides, in data set [3], the OTUB2 is 0. Moreover, the PCAF in data set [4] is listed as 0. The results for the viability at 48 h, 10 µM in data set [5], in data set [6] and in data set [7] were 101%, 99.1% and 85.9%, respectively.
In data set [1], `O=C(CCl)Nc1ccc(F)c(Cl)c1` [PCM-0102217] had a BSA of 0.13. For the same compound, in data set [2], the NUDT7 was 0. This compound showed an OTUB2 in data set [3] of 0.14. Also, the PCAF in data set [4] stood at 0. In addition, the viability at 48 h, 10 µM was 2.5% in data set [5], 18.8% in data set [6] and 1.1% in data set [7].
In data set [1], `Cc1cccc(N(C(=O)CCl)C2C=CS(=O)(=O)C2)c1` (stereo not shown) [PCM-0102579] returned a BSA of 0. In addition, the NUDT7 in data set [2] turned out to be 0.4. The compound also registered an OTUB2 in data set [3] of 0. The compound further gave a PCAF in data set [4] of 0. In addition, the viability at 48 h, 10 µM was determined as 29.8% in data set [5], 16.2% in data set [6] and 6.4% in data set [7].
On to `O=C(CCl)NCc1ccc(F)cc1` [PCM-0102192], for which the BSA in data set [1] was 0. The same compound registered an NUDT7 in data set [2] of 0. This compound also registered an OTUB2 in data set [3] of 0.31. In addition, the PCAF in data set [4] is listed as 0. In addition, the viability at 48 h, 10 µM in data set [5] amounted to 86.9%; in data set [6] it was 76.1%; in data set [7], 77.8%.
Regarding `O=C(CCl)Nc1cccc(C(=O)O)c1` [PCM-0102696], the BSA in data set [1] worked out at 0. In data set [2], this compound gave an NUDT7 of 0. This compound also gave an OTUB2 in data set [3] of 0.11. In addition, in data set [4], the PCAF is listed as 0. Further, the viability at 48 h, 10 µM in data set [5] is 90.3%; in data set [6], 86.9%; in data set [7], 84.6%.
The compound `C=CC(=O)N1CCC2(CC1)CNC(=O)C2` [PCM-0102690] gave a BSA in data set [1] of 0. In data set [2], this compound displayed an NUDT7 of 0. In addition, the OTUB2 in data set [3] is given as 0. The compound further showed a PCAF in data set [4] of 0. For the same compound, the viability at 48 h, 10 µM worked out at 100% in data set [5], 107% in data set [6] and 95.1% in data set [7].
Compound `CN(Cc1ccccc1F)C(=O)CCl` [PCM-0102787] yielded a BSA in data set [1] of 0. In addition, the NUDT7 in data set [2] is given as 0. Further, in data set [3], the OTUB2 was found to be 0. In data set [4], this compound had a PCAF of 0. For the same compound, the viability at 48 h, 10 µM in data set [5] was determined as 57.7%; in data set [6] it was 72.2%; in data set [7] it was 57.9%.
`C=CC(=O)N1CCCC(c2nnc3ccc(C(F)(F)F)cn23)C1` (stereo not shown) [PCM-0102606]: the BSA in data set [1] is reported as 0. In data set [2], this compound had an NUDT7 of 0. In data set [3], this compound gave an OTUB2 of 0. This compound returned a PCAF in data set [4] of 0. Moreover, the viability at 48 h, 10 µM in data set [5] came to 107%; in data set [6], 111%; in data set [7] it was 126%.
